Results taken from paper PMC3265371 (Nature Communications, 2011).
Where two headings read alike, the source gives them in different places. One block for each molecule: values may come before it.

What was measured:
[1] = target: T1, CNGA1 (homomeric channel) (Bos taurus, UniProt Q00194); assay: inside-out patch clamp, block of cGMP-activated current; format: cell-based
T1 sequence (Q00194 1-690): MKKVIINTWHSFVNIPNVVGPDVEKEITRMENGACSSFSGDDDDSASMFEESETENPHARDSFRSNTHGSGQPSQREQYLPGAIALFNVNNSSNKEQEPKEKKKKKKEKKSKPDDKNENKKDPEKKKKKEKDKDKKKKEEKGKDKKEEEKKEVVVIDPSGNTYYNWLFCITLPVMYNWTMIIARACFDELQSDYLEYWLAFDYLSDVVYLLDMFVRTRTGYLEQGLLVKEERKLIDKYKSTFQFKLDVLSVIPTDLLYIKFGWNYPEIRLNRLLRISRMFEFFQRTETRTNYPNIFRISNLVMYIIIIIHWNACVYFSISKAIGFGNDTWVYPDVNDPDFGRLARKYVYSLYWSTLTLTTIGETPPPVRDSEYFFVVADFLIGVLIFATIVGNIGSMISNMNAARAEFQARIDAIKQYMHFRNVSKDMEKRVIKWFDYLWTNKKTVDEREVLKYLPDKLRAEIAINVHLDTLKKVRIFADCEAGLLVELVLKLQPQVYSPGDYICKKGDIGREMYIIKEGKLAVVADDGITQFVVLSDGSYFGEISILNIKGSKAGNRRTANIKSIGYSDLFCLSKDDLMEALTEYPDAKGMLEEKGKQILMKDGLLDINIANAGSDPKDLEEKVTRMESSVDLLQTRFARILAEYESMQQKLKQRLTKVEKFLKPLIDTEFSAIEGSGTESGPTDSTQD

[2] = target: CNGA1+CNGB1 (heteromeric rod CNG channel) (Bos taurus, UniProt Q00194+Q28181); assay: as above; format: cell-based
CNGA1+CNGB1 (heteromeric rod CNG channel), sequence (Q28181 whole entry, one chain of several): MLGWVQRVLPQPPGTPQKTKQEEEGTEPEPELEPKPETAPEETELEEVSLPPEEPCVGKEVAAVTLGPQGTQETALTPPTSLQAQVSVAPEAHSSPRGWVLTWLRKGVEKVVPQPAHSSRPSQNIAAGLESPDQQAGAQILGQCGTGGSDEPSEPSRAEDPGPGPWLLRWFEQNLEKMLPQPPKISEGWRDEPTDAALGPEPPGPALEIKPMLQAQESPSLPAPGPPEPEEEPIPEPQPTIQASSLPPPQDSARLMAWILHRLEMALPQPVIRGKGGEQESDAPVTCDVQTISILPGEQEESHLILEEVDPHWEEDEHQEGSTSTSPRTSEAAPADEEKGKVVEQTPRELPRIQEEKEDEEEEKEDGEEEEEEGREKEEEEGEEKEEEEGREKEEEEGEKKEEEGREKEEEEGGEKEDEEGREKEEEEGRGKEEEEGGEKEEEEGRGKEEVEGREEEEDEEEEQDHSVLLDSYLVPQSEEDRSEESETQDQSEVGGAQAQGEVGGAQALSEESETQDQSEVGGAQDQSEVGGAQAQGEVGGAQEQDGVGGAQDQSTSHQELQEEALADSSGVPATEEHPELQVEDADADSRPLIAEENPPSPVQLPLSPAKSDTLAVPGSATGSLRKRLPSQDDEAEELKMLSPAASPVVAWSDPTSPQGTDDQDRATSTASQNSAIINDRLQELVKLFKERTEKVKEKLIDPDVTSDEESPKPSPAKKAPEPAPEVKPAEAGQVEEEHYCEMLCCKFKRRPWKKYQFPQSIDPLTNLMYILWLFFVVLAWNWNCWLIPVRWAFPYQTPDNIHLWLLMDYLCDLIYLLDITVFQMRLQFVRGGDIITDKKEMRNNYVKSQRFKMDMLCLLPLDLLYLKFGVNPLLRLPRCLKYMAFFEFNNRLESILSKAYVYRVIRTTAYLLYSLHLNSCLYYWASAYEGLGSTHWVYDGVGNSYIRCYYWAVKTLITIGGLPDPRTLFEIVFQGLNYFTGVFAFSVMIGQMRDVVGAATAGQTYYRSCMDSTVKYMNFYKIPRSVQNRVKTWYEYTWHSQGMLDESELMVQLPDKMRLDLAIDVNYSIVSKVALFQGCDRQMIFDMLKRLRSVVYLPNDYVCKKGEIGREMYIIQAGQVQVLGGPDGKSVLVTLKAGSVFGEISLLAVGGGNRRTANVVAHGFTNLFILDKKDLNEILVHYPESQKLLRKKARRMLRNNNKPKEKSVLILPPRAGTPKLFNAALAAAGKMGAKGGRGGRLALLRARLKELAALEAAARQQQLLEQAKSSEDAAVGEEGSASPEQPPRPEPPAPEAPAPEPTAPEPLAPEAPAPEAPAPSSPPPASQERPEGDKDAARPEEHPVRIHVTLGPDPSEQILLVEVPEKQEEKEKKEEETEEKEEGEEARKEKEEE

[3] = target: T2, CNGA1-ΔCLZ (homomeric channel) (Bos taurus, UniProt Q00194, DEL609-693); assay: as above; format: cell-based
T2 sequence (Q00194 1-608): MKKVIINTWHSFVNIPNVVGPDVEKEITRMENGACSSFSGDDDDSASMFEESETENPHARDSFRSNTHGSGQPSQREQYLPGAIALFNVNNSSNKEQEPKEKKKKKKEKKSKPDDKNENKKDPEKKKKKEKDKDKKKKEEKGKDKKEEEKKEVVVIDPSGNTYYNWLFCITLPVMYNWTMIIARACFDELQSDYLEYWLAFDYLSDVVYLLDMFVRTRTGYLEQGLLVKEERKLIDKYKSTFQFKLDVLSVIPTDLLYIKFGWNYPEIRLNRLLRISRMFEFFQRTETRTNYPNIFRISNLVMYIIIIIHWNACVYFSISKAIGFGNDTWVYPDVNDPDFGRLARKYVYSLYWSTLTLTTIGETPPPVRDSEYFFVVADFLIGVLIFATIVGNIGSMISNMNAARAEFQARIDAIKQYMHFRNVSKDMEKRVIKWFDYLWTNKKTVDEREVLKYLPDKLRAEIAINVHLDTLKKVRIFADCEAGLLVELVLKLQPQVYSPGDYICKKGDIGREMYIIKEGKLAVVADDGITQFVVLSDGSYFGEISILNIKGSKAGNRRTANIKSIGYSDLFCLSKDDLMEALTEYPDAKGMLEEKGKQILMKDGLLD

CNGA1+CNGB1-ΔN = CNGA1+CNGB1-ΔN (Bos taurus, UniProt Q00194+Q28181, DEL2-765); assay: as above; format: cell-based
CNGA1+CNGB1-ΔN, sequence (Q28181 766-1394, stated change not applied, one chain of several): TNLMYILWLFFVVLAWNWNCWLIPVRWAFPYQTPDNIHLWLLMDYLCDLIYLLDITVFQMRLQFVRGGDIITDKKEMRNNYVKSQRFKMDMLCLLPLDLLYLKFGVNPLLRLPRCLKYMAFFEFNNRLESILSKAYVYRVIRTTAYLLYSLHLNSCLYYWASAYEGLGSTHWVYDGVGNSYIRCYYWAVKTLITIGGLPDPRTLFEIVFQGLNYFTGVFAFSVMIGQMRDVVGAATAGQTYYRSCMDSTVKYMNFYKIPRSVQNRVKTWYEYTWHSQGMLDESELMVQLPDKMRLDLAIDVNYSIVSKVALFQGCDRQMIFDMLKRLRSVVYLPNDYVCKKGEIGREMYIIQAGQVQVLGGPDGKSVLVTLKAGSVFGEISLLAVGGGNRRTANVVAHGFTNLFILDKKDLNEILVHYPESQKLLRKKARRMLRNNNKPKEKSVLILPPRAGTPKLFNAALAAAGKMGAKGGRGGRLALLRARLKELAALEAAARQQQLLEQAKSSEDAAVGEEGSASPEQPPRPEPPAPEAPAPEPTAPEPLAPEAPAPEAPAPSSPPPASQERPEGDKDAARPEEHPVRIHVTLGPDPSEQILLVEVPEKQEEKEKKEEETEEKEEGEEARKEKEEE

[4] = target: T1, CNGA1 (homomeric channel); assay: inside-out patch clamp, activated current; format: biochemical; details: 2.5 mM cGMP, ±60 mV, pH 7.2; activation, saturating
[5] = target: the molecule itself
SEC-MALS = target: the molecule itself; assay: SEC-MALS

IC50 [1]: 174 ± 7.2 µM
IC50 [2]: 2.45 ± 0.28 µM
IC50 [3]: 164 ± 8.2 µM
IC50 (CNGA1+CNGB1-ΔN): 1.4 ± 0.21 µM
Molecule: COc1ccc([C@H]2Sc3ccccc3N(CCN(C)C)C(=O)[C@H]2OC(C)=O)cc1 [L-cis-diltiazem]

Molecule: Nc1nc2c(ncn2[C@@H]2O[C@@H]3COP(=O)(O)O[C@H]3[C@H]2O)c(=O)[nH]1 [cGMP]
inside-out patch clamp, activated current [4]: Homomeric channels of CNGA1 subunits are efficiently activated by saturating cGMP

Molecule: LEEKVEQLGSSLDTLQTRFARLLAEYNATQMKMKQRLSQLESQVKGG (domain or fragment, human, UniProt Q16281 626-672, looked up) [CNGA3#626–672]
stoichiometry N [5]: 3

B1: CNGA1#621–690 (domain or fragment, bovine, UniProt Q00194 621-690, looked up)
chain: LEEKVTRMESSVDLLQTRFARILAEYESMQQKLKQRLTKVEKFLKPLIDTEFSAIEGSGTESGPTDSTQD
stoichiometry N (SEC-MALS): 3

B2: CNGA3#626–694 (domain or fragment, human, UniProt Q16281 626-694, looked up)
chain: LEEKVEQLGSSLDTLQTRFARLLAEYNATQMKMKQRLSQLESQVKGGGDKPLADGEVPGDATKTEDKQQ
stoichiometry N (SEC-MALS): 3

Molecule: LEEKVTRMESSVDLLQTRFARILAEYESMQQKLKQRLTKVEKFLKPL (domain or fragment, bovine, UniProt Q00194 621-667, looked up) [CNGA1#621–667]
stoichiometry N [5]: 3
